Assay results: ChEMBL document CHEMBL1148424, “Synthesis of novel melanocortin 4 receptor agonists and antagonists containing a succinamide core” (Bioorg Med Chem Lett, 2004)

How the values were obtained:
Melanocortin receptor 4 [1] = biological target: T1, Melanocortin receptor 4 (Homo sapiens, UniProt P32245); test: Percentage of maximal response with respect to alpha-MSH in cells expressing the melanocortin 4 receptor; format: functional
Melanocortin receptor 4 [2] = biological target: T1, Melanocortin receptor 4; test: Intracellular level of cAMP in cells expressing the melanocortin 4 receptor; format: functional
Melanocortin receptor 4 [3] = biological target: T1, Melanocortin receptor 4; test: Inhibitory activity against [125I]NDP-alpha-MSH binding to the human melanocortin 4 receptor
[4] = biological target: Melanocyte-stimulating hormone receptor (Mus musculus, UniProt Q01727); test: Inhibitory activity against mouse melanocortin 1 receptor
Melanocyte-stimulating hormone receptor, sequence (Q01727 whole entry): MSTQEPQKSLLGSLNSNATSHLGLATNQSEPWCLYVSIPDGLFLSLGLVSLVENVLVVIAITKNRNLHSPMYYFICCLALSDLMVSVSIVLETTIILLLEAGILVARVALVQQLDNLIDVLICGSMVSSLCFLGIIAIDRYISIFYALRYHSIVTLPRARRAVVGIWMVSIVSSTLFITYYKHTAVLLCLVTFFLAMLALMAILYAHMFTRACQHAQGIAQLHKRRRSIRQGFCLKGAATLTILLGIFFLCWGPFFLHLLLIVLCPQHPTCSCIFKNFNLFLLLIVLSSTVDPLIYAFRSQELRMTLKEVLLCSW

Melanocortin receptor 3 = Melanocortin receptor 3 (Homo sapiens, UniProt P41968); test: Inhibitory activity against human melanocortin 3 receptor
Melanocortin receptor 3, sequence (P41968 whole entry): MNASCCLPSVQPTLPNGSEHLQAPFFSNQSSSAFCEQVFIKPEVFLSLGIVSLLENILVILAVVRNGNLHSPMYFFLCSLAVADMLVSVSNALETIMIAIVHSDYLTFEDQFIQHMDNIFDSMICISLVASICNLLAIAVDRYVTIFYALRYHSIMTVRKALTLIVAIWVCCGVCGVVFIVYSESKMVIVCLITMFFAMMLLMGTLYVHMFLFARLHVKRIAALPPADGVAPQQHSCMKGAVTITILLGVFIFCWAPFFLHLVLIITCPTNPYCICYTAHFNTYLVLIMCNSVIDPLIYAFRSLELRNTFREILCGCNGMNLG

T1 sequence (P32245 whole entry): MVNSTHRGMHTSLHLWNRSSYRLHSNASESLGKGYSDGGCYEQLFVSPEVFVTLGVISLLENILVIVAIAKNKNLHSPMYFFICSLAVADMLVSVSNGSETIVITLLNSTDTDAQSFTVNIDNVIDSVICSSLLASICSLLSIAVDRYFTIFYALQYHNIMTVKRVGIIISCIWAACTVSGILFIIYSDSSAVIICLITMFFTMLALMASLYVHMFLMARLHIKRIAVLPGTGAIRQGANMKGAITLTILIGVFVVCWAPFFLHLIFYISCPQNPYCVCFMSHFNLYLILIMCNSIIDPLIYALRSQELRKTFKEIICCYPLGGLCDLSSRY

Compound | Activation (Melanocortin receptor 4 [1]) | EC50 (Melanocortin receptor 4 [2]) | IC50 (Melanocortin receptor 4 [3]) | IC50 [4] | IC50 (Melanocortin receptor 3)
CCN(C(C)=O)C(C)c1ccccc1N1CCN(C(=O)[C@H](CC(=O)NCc2ccccc2F)Cc2ccc(Cl)cc2)CC1 (some centres undefined) | 100% | 89 nM | 13 nM | > 1600 nM | > 10000 nM
CS(=O)(=O)N(CC1CC1)c1ccccc1N1CCN(C(=O)[C@@H](Cc2ccc(Cl)cc2)NC(=O)C2CCNCC2)CC1 | > 90% | < 0.1 nM | 130 nM | – | –
CCN(C(C)=O)C(C)c1ccccc1N1CCN(C(=O)[C@H](CC(=O)N2CCC2)Cc2ccc(Cl)cc2)CC1 (some centres undefined) | 90% | 340 nM | 19 nM | > 1400 nM | > 10000 nM
CCN(C(C)=O)C(C)c1ccccc1N1CCN(C(=O)[C@H](CC(=O)NCc2ccccn2)Cc2ccc(Cl)cc2)CC1 (some centres undefined) | 95% | 37 nM | 32 nM | – | –
CCN(C(C)=O)C(C)c1ccccc1N1CCN(C(=O)[C@H](CC(=O)NC2CCC2)Cc2ccc(Cl)cc2)CC1 (some centres undefined) | 100% | 15 nM | 5.8 nM | > 600 nM | > 10000 nM
CS(=O)(=O)N(CC1CC1)c1ccccc1N1CCN(C(=O)[C@H](CC(=O)N2CCNCC2)Cc2ccc(Cl)cc2)CC1 | 70% | 2000 nM | 220 nM | > 8000 nM | > 8000 nM
CCN(C(C)=O)C(C)c1ccccc1N1CCN(C(=O)[C@H](CC(=O)N2CCN(C(=O)OC(C)(C)C)CC2)Cc2ccc(Cl)cc2)CC1 (some centres undefined) | 0% | > 10000 nM | 2 nM | – | –
CS(=O)(=O)N(CC1CC1)c1ccccc1N1CCN(C(=O)[C@H](CC(=O)N2CCN(C(=O)c3ccccc3)CC2)Cc2ccc(Cl)cc2)CC1 | 55% | 83 nM | 4.4 nM | – | –
CS(=O)(=O)N1CC2(CCN(C(=O)[C@@H](Cc3ccc(Cl)cc3)NC(=O)[C@H]3Cc4ccccc4CN3)CC2)c2ccccc21 | 100% | 5.2 nM | 66 nM | 153 nM | 2900 nM
CCN(C(C)=O)C(C)c1ccccc1N1CCN(C(=O)[C@H](CC(=O)N2CCSC2)Cc2ccc(Cl)cc2)CC1 (some centres undefined) | 80% | 530 nM | 9.4 nM | – | –

More lines, now with the values ahead:

Activation (Melanocortin receptor 4 [1]) | EC50 (Melanocortin receptor 4 [2]) | IC50 (Melanocortin receptor 4 [3]) | IC50 [4] | IC50 (Melanocortin receptor 3) | Compound
0% | > 10000 nM | 11 nM | > 10000 nM | > 10000 nM | CC(=O)N1CCN(C(=O)C[C@H](Cc2ccc(Cl)cc2)C(=O)N2CCN(c3ccccc3N(CC3CC3)S(C)(=O)=O)CC2)CC1
0% | > 10000 nM | 4.8 nM | – | – | CC(C)CCN1CCN(C(=O)C[C@H](Cc2ccc(Cl)cc2)C(=O)N2CCN(c3ccccc3N(CC3CC3)S(C)(=O)=O)CC2)CC1
0% | > 10000 nM | 3 nM | – | – | CS(=O)(=O)N(CC1CC1)c1ccccc1N1CCN(C(=O)[C@H](CC(=O)N2CCN(CC3CC3)CC2)Cc2ccc(Cl)cc2)CC1
0% | > 10000 nM | 3.3 nM | > 10000 nM | > 3500 nM | CC(C)(C)OC(=O)N1CCN(C(=O)C[C@H](Cc2ccc(Cl)cc2)C(=O)N2CCN(c3ccccc3N(CC3CC3)S(C)(=O)=O)CC2)CC1
0% | > 10000 nM | 8.9 nM | > 10000 nM | > 10000 nM | CCCN1CCN(C(=O)C[C@H](Cc2ccc(Cl)cc2)C(=O)N2CCN(c3ccccc3N(CC3CC3)S(C)(=O)=O)CC2)CC1
45% | 74 nM | < 0.1 nM | > 1800 nM | > 10000 nM | CC(C)(C)CC(=O)N1CCN(C(=O)C[C@H](Cc2ccc(Cl)cc2)C(=O)N2CCN(c3ccccc3N(CC3CC3)S(C)(=O)=O)CC2)CC1
0% | > 10000 nM | 1.4 nM | > 10000 nM | > 10000 nM | CCOC(=O)N1CCN(C(=O)C[C@H](Cc2ccc(Cl)cc2)C(=O)N2CCN(c3ccccc3N(CC3CC3)S(C)(=O)=O)CC2)CC1
0% | > 10000 nM | 9.5 nM | – | – | CCN1CCN(C(=O)C[C@H](Cc2ccc(Cl)cc2)C(=O)N2CCN(c3ccccc3N(CC3CC3)S(C)(=O)=O)CC2)CC1
